US20240041042A1, “1-(PYRIDYL)-5-AZINYLPYRAZOLE DERIVATIVES, AND THEIR USE FOR CONTROL OF UNDESIRED PLANT GROWTH” (Bayer Aktiengesellschaft, priority 2020, published 2024)
Read-outs that look alike come from different tables or passages of the source. Blank lines part the entries; values can stand above or below the compound they belong to.

Key:
Assay type in all cases: in vivo
[1] = test system: Abutilon theophrasti (ABUTH); assay: Pre-emergence herbicidal action against ABUTH; details: Dosage column 320 g/ha (title prints 3200 g/ha); scored visually after about 3 weeks; 100% = plants have died
Outline: (§1)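 Herbicide applied to soil before seedling emergence, at 600 l/ha spray volume with 0.5% additive and rates up to 320 g/ha. Evaluation: visual percentage effect, about 3 weeks later, greenhouse-grown pots compared with untreated ones.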

[2] = test system: Alopecurus myosuroides (ALOMY); assay: Pre-emergence herbicidal action against ALOMY; details: scored visually after about 3 weeks, 100% = plants have died
Outline: as §1

[3] = test system: Amaranthus retroflexus (AMARE); assay: Pre-emergence herbicidal action against AMARE; details: visual scoring after about 3 weeks vs untreated controls
Outline: as §1

Avena fatua (AVEFA) [4] = assay: Pre-emergence herbicidal action against AVEFA; details: visual scoring after about 3 weeks vs untreated controls
Outline: as §1

[5] = test system: Digitaria sanguinalis (DIGSA); assay: Pre-emergence herbicidal action against DIGSA
Outline: as §1

[6] = test system: Echinochloa crus-galli (ECHCG); assay: Pre-emergence herbicidal action against ECHCG; details: dosage 320 g/ha
Outline: as §1

Lolium rigidum (LOLRI) [7] = assay: Pre-emergence herbicidal action against LOLRI
Outline: as §1

[8] = test system: Matricaria inodora (MATIN); assay: Pre-emergence herbicidal action against MATIN
Outline: as §1

[9] = test system: Pharbitis purpurea (PHBPU); assay: Pre-emergence herbicidal action against PHBPU; details: dosage 320 g/ha
Outline: as §1

[10] = test system: Polygonum convolvulus (POLCO); assay: Pre-emergence herbicidal action against POLCO
Outline: as §1

Setaria viridis (SETVI) [11] = assay: Pre-emergence herbicidal action against SETVI
Outline: as §1

[12] = test system: Verconica persica (VERPE); assay: Pre-emergence herbicidal action against VERPE; details: dosage 320 g/ha
Outline: as §1

Viola tricolor (VIOTR) [13] = assay: Pre-emergence herbicidal action against VIOTR
Outline: as §1

Brassica napus (BRSNW) = details: 20 g/ha, crop plant compatibility, in comparison to untreated controls
Outline: (§2)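 Scoring: visual, % of untreated control, about 3 weeks after a pre-emergence application to the soil surface. Application used WP or EC formulations diluted in water with 0.5% additive at 600 l/ha; dosage levels are marked by suffixes a, b and c.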

[14] = test system: Triticum aestivum (TRZAS); details: 20 g/ha; crop plant compatibility, effect vs untreated controls
Outline: as §2

[15] = test system: Alopecurus myosuroides (ALOMY); assay: Post-emergence herbicidal action against ALOMY; details: visual rating about 3 weeks after treatment vs untreated controls (100% = plants have died, 0% = like control plants)
Outline: (§3)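 Rates were 320 g/ha or below, applied as aqueous WP/EC spray with 0.5% additive (600 l/ha) onto one-leaf-stage plants. About 3 weeks later in the greenhouse, damage was scored visually against untreated plants on a 0–100% scale, where 100% means plants died.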

[16] = test system: Digitaria sanguinalis (DIGSA); assay: Post-emergence herbicidal action against DIGSA; details: visual rating about 3 weeks after treatment
Outline: as §3

Lolium rigidum (LOLRI) [17] = assay: Post-emergence herbicidal action against LOLRI; details: dosage 320 g/ha
Outline: as §3

[18] = test system: Matricaria inodora (MATIN); assay: Post-emergence herbicidal action against MATIN
Outline: as §3

[19] = test system: Pharbitis purpurea (PHBPU); assay: Post-emergence herbicidal action against PHBPU; details: dosage 320 g/ha
Outline: as §3

Setaria viridis (SETVI) [20] = assay: Post-emergence herbicidal action against SETVI
Outline: as §3

[21] = test system: Verconica persica (VERPE); assay: Post-emergence herbicidal action against VERPE
Outline: as §3

Viola tricolor (VIOTR) [22] = assay: Post-emergence herbicidal action against VIOTR; details: 320 g/ha
Outline: as §3

Oryza sativa (ORYSA) = details: crop plant compatibility
Outline: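 Foliar application at the one-leaf stage: WP/EC formulation, 0.5% additive, 600 l/ha water. Greenhouse-grown in sandy loam. Endpoint is visual % injury relative to untreated controls at about 3 weeks.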

Glycine max (GLXMA) = details: pre-emergence, 80 g/ha, crop plant compatibility, in comparison to untreated controls
Outline: as §2

Zea mays (ZEAMX) = details: pre-emergence, 80 g/ha, crop plant compatibility, in comparison to untreated controls
Outline: as §2

[23] = test system: Amaranthus retroflexus (AMARE); assay: Post-emergence herbicidal action against AMARE
Outline: as §3

Avena fatua (AVEFA) [24] = assay: Post-emergence herbicidal action against AVEFA; details: 320 g/ha, visual rating about 3 weeks after treatment
Outline: as §3

[25] = test system: Echinochloa crus-galli (ECHCG); assay: Post-emergence herbicidal action against ECHCG; details: dosage 320 g/ha
Outline: as §3

[26] = test system: Polygonum convolvulus (POLCO); assay: Post-emergence herbicidal action against POLCO; details: dosage 320 g/ha
Outline: as §3

[27] = 80 g/ha, effect in comparison to untreated controls

Pre-emergence action against BRSNW in % (Brassica napus (BRSNW)): 10%
Pre-emergence action against TRZAS [14]: 10%
Post-emergence action against ORYSA in % (Oryza sativa (ORYSA); 20 g/ha, effect vs untreated controls): 0%
Post-emergence action against ORYSA in % (Oryza sativa (ORYSA); [27]): 10%
Compound: COC(=O)[C@@H](C)Oc1nn(-c2ncccc2F)c(-c2cncc(F)c2)c1Br [Example I-15]
Pre-emergence action against ABUTH [1]: 90%
Pre-emergence action against ALOMY ([2]; 80 g/ha): 100%
Pre-emergence action against ALOMY ([2]; 320 g/ha): 100%
Pre-emergence action against AMARE in % ([3]; 80 g/ha): 100%
Pre-emergence action against AMARE in % ([3]; 320 g/ha): 100%
Pre-emergence action against AVEFA in % (Avena fatua (AVEFA) [4]; 80 g/ha): 80%
Pre-emergence action against AVEFA in % (Avena fatua (AVEFA) [4]; 320 g/ha): 100%
Pre-emergence action against DIGSA in % ([5]; 80 g/ha, visual scoring after about 3 weeks vs untreated controls): 100%
Pre-emergence action against DIGSA in % ([5]; dosage 320 g/ha): 100%
Pre-emergence action against ECHCG in % [6]: 90%
Pre-emergence action against LOLRI in % (Lolium rigidum (LOLRI) [7]; dosage 80 g/ha): 90%
Pre-emergence action against LOLRI in % (Lolium rigidum (LOLRI) [7]; dosage 320 g/ha): 100%
Pre-emergence action against MATIN in % ([8]; dosage 80 g/ha): 100%
Pre-emergence action against MATIN in % ([8]; dosage 320 g/ha): 100%
Pre-emergence action against PHBPU in % [9]: 80%
Pre-emergence action against POLCO in % ([10]; dosage 80 g/ha): 90%
Pre-emergence action against POLCO in % ([10]; dosage 320 g/ha): 100%
Pre-emergence action against SETVI in % (Setaria viridis (SETVI) [11]; dosage 80 g/ha): 100%
Pre-emergence action against SETVI in % (Setaria viridis (SETVI) [11]; dosage 320 g/ha): 100%
Pre-emergence action against VERPE in % [12]: 100%
Pre-emergence action against VIOTR in % (Viola tricolor (VIOTR) [13]; 320 g/ha, Viola tricolor): 100%
Pre-emergence action against VIOTR in % (Viola tricolor (VIOTR) [13]; dosage 80 g/ha): 100%
Post-emergence action against ALOMY in % ([15]; 80 g/ha): 90%
Post-emergence action against ALOMY in % ([15]; 320 g/ha): 90%
Post-emergence action against DIGSA in % ([16]; 80 g/ha): 90%
Post-emergence action against DIGSA in % ([16]; 320 g/ha): 90%
Post-emergence action against LOLRI in % (Lolium rigidum (LOLRI) [17]): 80%
Post-emergence action against MATIN in % ([18]; dosage 80 g/ha): 80%
Post-emergence action against MATIN in % ([18]; dosage 320 g/ha): 90%
Post-emergence action against PHBPU in % [19]: 90%
Post-emergence action against SETVI in % (Setaria viridis (SETVI) [20]; dosage 80 g/ha): 80%
Post-emergence action against SETVI in % (Setaria viridis (SETVI) [20]; dosage 320 g/ha): 90%
Post-emergence action against VERPE in % ([21]; 320 g/ha, VERPE): 80%
Post-emergence action against VERPE in % ([21]; dosage 80 g/ha): 80%
Post-emergence action against VIOTR in % (Viola tricolor (VIOTR) [22]): 80%

Pre-emergence action against GLXMA in % (Glycine max (GLXMA)): 0%
Pre-emergence action against ZEAMX in % (Zea mays (ZEAMX)): 20%
Post-emergence action against ORYSA in % (Oryza sativa (ORYSA); [27]): 0%
Compound: C[C@@H](Oc1nn(-c2ncccc2F)c(-c2ccc(F)nc2)c1F)C(=O)O [Example I-306]
Pre-emergence action against ALOMY ([2]; 320 g/ha): 90%
Pre-emergence action against AMARE in % ([3]; 320 g/ha): 90%
Pre-emergence action against AVEFA in % (Avena fatua (AVEFA) [4]; 320 g/ha): 80%
Pre-emergence action against LOLRI in % (Lolium rigidum (LOLRI) [7]; dosage 320 g/ha): 100%
Pre-emergence action against MATIN in % ([8]; dosage 80 g/ha): 90%
Pre-emergence action against MATIN in % ([8]; dosage 320 g/ha): 90%
Pre-emergence action against SETVI in % (Setaria viridis (SETVI) [11]; dosage 320 g/ha): 80%
Pre-emergence action against VIOTR in % (Viola tricolor (VIOTR) [13]; 320 g/ha, Viola tricolor): 80%
Post-emergence action against ALOMY in % ([15]; 320 g/ha): 100%
Post-emergence action against AMARE in % ([23]; 80 g/ha, visual rating about 3 weeks after treatment vs untreated controls (100% = plants have died, 0% = like control plants)): 80%
Post-emergence action against AMARE in % ([23]; 320 g/ha, visual rating about 3 weeks after treatment): 80%
Post-emergence action against AVEFA in % (Avena fatua (AVEFA) [24]): 80%
Post-emergence action against ECHCG in % [25]: 90%
Post-emergence action against LOLRI in % (Lolium rigidum (LOLRI) [17]): 90%
Post-emergence action against POLCO in % [26]: 80%
Post-emergence action against SETVI in % (Setaria viridis (SETVI) [20]; dosage 320 g/ha): 90%
Post-emergence action against VERPE in % ([21]; 320 g/ha, VERPE): 90%
Post-emergence action against VIOTR in % (Viola tricolor (VIOTR) [22]): 80%
